Test results from patent US20240327412A1, “FACTOR XIIA INHIBITORS” (KALVISTA PHARMACEUTICALS LIMITED, priority 2021, published 2024).

Columns and labels:
[1] = test system: patients with type I/II hereditary angioedema (HAE); conditions: phase 2, monthly prophylactic subcutaneous treatment; cited from earlier work
Human Factor XIIa = target: T1, Human Factor XIIa (Homo sapiens, UniProt P00748); experiment: Determination of FXIIa inhibition (fluorogenic substrate H-DPro-Phe-Arg-AFC, IC50 assay); type: biochemical; conditions: substrate at Km concentration, 25° C.; category scale; read-out: Human FXII IC50 (nm)
T1 construct: Proteolytic cleavage of FXII to heavy and light chains of FXIIa dramatically increases catalytic activity; purchased Enzyme Research Laboratories
T1 sequence (P00748 373-615 limits assumed): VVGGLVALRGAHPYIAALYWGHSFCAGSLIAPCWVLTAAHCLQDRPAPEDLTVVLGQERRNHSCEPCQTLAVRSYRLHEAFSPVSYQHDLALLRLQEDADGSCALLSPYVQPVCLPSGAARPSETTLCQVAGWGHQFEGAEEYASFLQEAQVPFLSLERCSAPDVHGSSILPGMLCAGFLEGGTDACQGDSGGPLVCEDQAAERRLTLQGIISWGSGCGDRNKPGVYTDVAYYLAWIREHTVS
T1 sequence (P00748 20-372 partner limits assumed): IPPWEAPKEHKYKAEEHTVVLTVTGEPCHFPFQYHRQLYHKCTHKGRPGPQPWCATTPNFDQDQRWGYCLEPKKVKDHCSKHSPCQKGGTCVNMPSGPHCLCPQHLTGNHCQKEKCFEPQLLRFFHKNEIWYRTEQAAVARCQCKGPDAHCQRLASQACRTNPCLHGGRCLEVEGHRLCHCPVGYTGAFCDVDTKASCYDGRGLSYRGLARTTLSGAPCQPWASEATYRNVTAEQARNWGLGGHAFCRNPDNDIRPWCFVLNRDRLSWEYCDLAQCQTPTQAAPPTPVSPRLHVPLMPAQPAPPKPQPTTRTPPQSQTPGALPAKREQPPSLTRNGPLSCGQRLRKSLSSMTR
How it was run: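 At substrate Km and 25° C., the rate of AFC release from H-DPro-Phe-Arg-AFC by human Factor XIIa was followed for 5 min across compound concentrations. Inhibition was derived as percent of uninhibited rate, giving IC50.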

Plasma Kallikrein = target: T2, Plasma Kallikrein (Homo sapiens, UniProt P03952); experiment: Related protease inhibition: Plasma Kallikrein (fluorogenic substrate at Km); type: biochemical; conditions: class symbols per Table 18, read-out: IC50 (human PKal)
T2 construct: FXIIa converts plasma prekallikrein (PK) to plasma kallikrein (PKa)
T2 sequence (P03952 391-638 limits assumed): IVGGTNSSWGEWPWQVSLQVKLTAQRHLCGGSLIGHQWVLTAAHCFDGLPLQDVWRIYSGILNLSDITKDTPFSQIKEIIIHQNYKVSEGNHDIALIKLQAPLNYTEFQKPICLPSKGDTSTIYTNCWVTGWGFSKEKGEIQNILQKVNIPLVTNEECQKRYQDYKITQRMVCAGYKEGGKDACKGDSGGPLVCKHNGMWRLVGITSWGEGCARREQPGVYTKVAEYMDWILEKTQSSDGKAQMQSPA
T2 sequence (P03952 20-390 partner limits assumed): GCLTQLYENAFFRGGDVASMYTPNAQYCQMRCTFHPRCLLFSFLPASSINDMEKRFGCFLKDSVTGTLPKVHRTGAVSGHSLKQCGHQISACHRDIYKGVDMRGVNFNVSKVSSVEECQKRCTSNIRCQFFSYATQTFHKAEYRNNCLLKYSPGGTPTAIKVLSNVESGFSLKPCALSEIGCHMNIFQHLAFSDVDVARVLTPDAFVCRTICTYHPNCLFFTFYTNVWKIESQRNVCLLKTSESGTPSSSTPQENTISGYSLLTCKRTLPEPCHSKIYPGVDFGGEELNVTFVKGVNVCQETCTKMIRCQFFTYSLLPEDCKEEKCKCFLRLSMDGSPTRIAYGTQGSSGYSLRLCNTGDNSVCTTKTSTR
How it was run: (§1)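 Fluorogenic substrate at Km for thrombin, trypsin and plasma kallikrein; FXIa run at fixed 100 μM substrate. Varied inhibitor concentrations, fluorescence accumulation read over 5 min, 25° C. IC50 = concentration giving 50% inhibition versus uninhibited (100%) activity.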

KLK1 = KLK1 (Homo sapiens, UniProt P06870); experiment: Related protease inhibition: KLK1 (fluorogenic substrate at Km); type: biochemical; conditions: class symbols per Table 18
Sequence of KLK1 (P06870 25-262): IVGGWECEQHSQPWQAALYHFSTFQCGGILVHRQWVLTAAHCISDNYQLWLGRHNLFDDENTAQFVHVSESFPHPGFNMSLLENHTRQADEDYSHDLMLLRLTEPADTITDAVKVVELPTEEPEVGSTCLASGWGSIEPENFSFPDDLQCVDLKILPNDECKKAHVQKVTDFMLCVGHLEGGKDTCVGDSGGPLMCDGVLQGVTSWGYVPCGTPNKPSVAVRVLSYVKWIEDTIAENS
How it was run: (§2)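 Percent activity is derived from the linear fluorescence increase per minute, measured over 5 min at 25° C. IC50 marks 50% inhibition of uninhibited activity.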

FXa = FXa (Homo sapiens, UniProt P00742); experiment: Related protease inhibition: FXa (fluorogenic substrate at Km); type: biochemical; conditions: class symbols per Table 18
Sequence of FXa (P00742 235-488 limits assumed): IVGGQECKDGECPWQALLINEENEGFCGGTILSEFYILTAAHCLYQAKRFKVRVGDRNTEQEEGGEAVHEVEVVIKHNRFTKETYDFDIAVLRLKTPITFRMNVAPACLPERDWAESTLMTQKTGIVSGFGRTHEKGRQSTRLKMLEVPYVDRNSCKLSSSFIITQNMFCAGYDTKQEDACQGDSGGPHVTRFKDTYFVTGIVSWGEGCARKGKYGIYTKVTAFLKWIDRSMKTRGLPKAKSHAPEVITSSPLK
Sequence of FXa (P00742 41-179 partner limits assumed): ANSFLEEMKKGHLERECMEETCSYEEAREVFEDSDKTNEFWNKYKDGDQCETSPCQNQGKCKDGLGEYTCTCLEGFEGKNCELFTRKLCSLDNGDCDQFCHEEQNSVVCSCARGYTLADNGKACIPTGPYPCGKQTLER
How it was run: as §2

Thrombin = Thrombin (Homo sapiens, UniProt P00734); experiment: Related protease inhibition: Thrombin (fluorogenic substrate at Km); type: biochemical; conditions: class symbols per Table 18
How it was run: as §1

[2] = Pharmacokinetics after single intravenous and single oral dose in rats; type: in vivo; conditions: rat, plasma, male Sprague-Dawley rats, single iv (nominal 1 mg/kg) and single po (nominal 5 mg/kg) dose; for half-life: Phoenix WinNonlin; for bioavailability: oral bioavailability, 10% DMSO/10% Cremophor EL/80% SWFI
Protocol: Pharmacokinetic studies of the compounds in Table 19 were performed to assess the pharmacokinetics following a single intravenous dose and a single oral dose in male Sprague-Dawley rats. Two rats were given a single intravenous dose of 1 mL/kg of a nominal 1 mg/ml (1 mg/kg) composition of test compound in 10% DMSO/10% Cremophor EL/80% SWFI vehicle. Two rats were given a single oral dose of 5 ml/kg of a nominal 1 mg/mL (5 mg/kg) composition of test compound in 10% DMSO/10% Cremophor EL/80% SWFI vehicle.
Following intravenous dosing, blood samples were collected over a period of 12 h. Sample times were 2, 5, 15 and 30 min then 1, 2, 4, 6, and 12 h. Following oral dosing, blood samples were collected over a period of 24 h. Sample times were 5, 15 and 30 min then 1, 2, 4, 6, 8, 12 and 24 h.
Following collection, blood samples were centrifuged and the plasma fraction analysed for concentration of test compound by LCMS. Oral bioavailability and half-life calculations from these studies were obtained using Phoenix WinNonlin (v8.0) and are shown below: […]

Plasmin = Plasmin (Homo sapiens, UniProt P00747); experiment: Related protease inhibition: Plasmin (fluorogenic substrate at Km); type: biochemical; conditions: class symbols per Table 18
Sequence of Plasmin (P00747 581-810 limits assumed): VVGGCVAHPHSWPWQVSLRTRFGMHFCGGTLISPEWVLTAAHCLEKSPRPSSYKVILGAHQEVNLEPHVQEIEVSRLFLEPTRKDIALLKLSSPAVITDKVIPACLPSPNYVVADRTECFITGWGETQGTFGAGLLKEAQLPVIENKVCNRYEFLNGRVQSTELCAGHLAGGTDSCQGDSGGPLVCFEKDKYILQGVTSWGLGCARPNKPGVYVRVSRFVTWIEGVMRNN
Sequence of Plasmin (P00747 97-580 partner limits assumed): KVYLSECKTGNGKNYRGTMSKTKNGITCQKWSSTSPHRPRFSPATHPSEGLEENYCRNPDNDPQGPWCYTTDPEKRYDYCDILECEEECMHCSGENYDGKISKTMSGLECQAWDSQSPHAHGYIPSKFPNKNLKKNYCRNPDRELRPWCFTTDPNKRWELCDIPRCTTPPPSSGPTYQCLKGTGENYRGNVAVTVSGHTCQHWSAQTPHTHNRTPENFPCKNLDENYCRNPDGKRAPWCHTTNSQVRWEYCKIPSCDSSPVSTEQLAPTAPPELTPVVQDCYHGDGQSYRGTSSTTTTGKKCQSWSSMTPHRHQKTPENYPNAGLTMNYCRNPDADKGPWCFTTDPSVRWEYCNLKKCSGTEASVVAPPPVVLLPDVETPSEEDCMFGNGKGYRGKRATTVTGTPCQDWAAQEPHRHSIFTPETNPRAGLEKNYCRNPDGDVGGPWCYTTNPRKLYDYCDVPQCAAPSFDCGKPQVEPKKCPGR
Protocol: (§3) In vitro inhibition of related proteases was determined using an IC50 assay based on standard literature methods (see e.g. Shori et al., Biochem. Pharmacol., 1992, 43, 1209; Bouckaert et al., European Journal of Medicinal Chemistry 110 (2016) 181). Human serine protease enzyme Plasma Kallikrein, KLK1, FXa, Plasmin, Thrombin and Trypsin were assayed for enzymatic activity using an appropriate fluorogenic substrate at Km concentration, FXIa at fixed substrate concentration of 100 μM and various concentrations of the test compound. Protease activity was measured by monitoring the accumulation of liberated fluorescence from the substrate over 5 min at 25° C. The linear rate of fluorescence increase per minute was expressed as percentage (%) activity. IC50 values were calculated as the concentration of inhibitor giving 50% inhibition of the uninhibited enzyme activity (100%).

Trypsin = Trypsin (Homo sapiens, UniProt P07477); experiment: Related protease inhibition: Trypsin (fluorogenic substrate at Km); type: biochemical; conditions: class symbols per Table 18
Protocol: as §3

FXIa = FXIa (Homo sapiens, UniProt P03951); experiment: Related protease inhibition: FXIa (fixed substrate concentration of 100 μM); type: biochemical; conditions: class symbols per Table 18
Sequence of FXIa (P03951 388-625 limits assumed): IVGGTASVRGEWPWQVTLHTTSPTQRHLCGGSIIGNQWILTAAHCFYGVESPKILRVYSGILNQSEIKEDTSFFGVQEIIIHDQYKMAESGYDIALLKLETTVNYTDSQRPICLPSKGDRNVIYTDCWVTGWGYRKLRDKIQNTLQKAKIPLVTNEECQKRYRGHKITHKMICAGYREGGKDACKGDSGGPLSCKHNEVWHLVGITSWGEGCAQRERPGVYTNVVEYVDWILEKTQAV
Sequence of FXIa (P03951 19-387 partner limits assumed): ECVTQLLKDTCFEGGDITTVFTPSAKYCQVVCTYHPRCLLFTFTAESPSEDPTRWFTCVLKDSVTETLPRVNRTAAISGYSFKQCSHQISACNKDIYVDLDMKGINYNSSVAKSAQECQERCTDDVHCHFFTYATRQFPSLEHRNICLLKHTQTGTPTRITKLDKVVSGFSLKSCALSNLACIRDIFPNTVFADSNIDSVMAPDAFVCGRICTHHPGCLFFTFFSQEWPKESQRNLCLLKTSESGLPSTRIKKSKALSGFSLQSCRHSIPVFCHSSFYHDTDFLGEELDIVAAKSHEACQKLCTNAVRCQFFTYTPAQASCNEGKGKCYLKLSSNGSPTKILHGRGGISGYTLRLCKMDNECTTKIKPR
Protocol: as §3

Garadacimab: "a monoclonal antibody inhibitory against FXIIa"
preventing attacks [1]: effective in preventing attacks | tolerability [1]: well tolerated

Nc1nccc2c(NCC34CC(COC5CCn6ccnc6C5)(C3)C4)cccc12 (single isomer, unassigned) [Example 1002.1, (S*)-N5-((3-(((5,6,7,8-tetrahydroimidazo[1,2-a]pyridin-7-yl)oxy)methyl)bicyclo[1.1.1]pentan-1-yl)methyl)isoquinoline-1,5-diamine]
IC50 (Human Factor XIIa): 0.1 to 0.3 µM | IC50 (Plasma Kallikrein): > 40 µM | IC50 (KLK1): 3 to 10 µM | IC50 (FXa): 10 to 40 µM | IC50 (Thrombin): 3 to 10 µM | half-life [2]: 7.36 h | bioavailability [2]: 41%

Nc1nccc2c(NCC34CC(COc5ccn6ccnc6c5)(C3)C4)cccc12 [Example 1001, N5-((3-((Imidazo[1,2-a]pyridin-7-yloxy)methyl)bicyclo[1.1.1]pentan-1-yl)methyl)isoquinoline-1,5-diamine]
IC50 (Human Factor XIIa): 0.1 to 0.3 µM | IC50 (Plasma Kallikrein): > 40 µM | IC50 (KLK1): 3 to 10 µM | IC50 (FXa): 10 to 40 µM | IC50 (Plasmin): > 40 µM | IC50 (Thrombin): 10 to 40 µM | IC50 (Trypsin): > 40 µM | IC50 (FXIa): > 40 µM | half-life [2]: 7.83 h | bioavailability [2]: 30.4%

Nc1nccc2c(NCC34CC(COc5ccc6nccn6c5)(CO3)C4)cccc12 [Example 6602, 5-N-[[4-(Imidazo[1,2-a]pyridin-6-yloxymethyl)-2-oxabicyclo[2.1.1]hexan-1-yl]methyl]isoquinoline-1,5-diamine]
IC50 (Human Factor XIIa): 0.01 to 0.1 µM | IC50 (Plasma Kallikrein): > 40 µM | IC50 (KLK1): 3 to 10 µM | IC50 (FXa): 10 to 40 µM | IC50 (Plasmin): > 40 µM | IC50 (Thrombin): 10 to 40 µM | IC50 (Trypsin): > 40 µM | half-life [2]: 5.7 h | bioavailability [2]: 33.5%

Cn1ccc(OCC23CN(C(=O)OCc4ccccc4)C(CNc4cccc5c(N)nccc45)(C2)C3)cc1=O [Example 12001, benzyl 1-(((1-aminoisoquinolin-5-yl)amino)methyl)-4-(((1-methyl-2-oxo-1,2-dihydropyridin-4-yl)oxy)methyl)-2-azabicyclo[2.1.1]hexane-2-carboxylate]
IC50 (Human Factor XIIa): 0.01 to 0.1 µM | IC50 (Plasma Kallikrein): > 40 µM | IC50 (KLK1): 3 to 10 µM | IC50 (FXa): > 40 µM | IC50 (Thrombin): > 40 µM | half-life [2]: 1.14 h | bioavailability [2]: 8.2%

Cn1ccc(OCC23CCOC(CNc4cccc5c(N)nccc45)(C2)C3)cc1=O [Example 10906, 4-((1-(((1-aminoisoquinolin-5-yl)amino)methyl)-2-oxabicyclo[3.1.1]heptan-5-yl)methoxy)-1-methylpyridin-2(1H)-one]
IC50 (Human Factor XIIa): 0.1 to 0.3 µM | IC50 (Plasma Kallikrein): > 40 µM | IC50 (KLK1): 10 to 40 µM | IC50 (FXa): > 40 µM | IC50 (Plasmin): > 40 µM | IC50 (Thrombin): > 40 µM | IC50 (Trypsin): 10 to 40 µM | half-life [2]: 2.55 h | bioavailability [2]: 40.5%

Nc1nccc2c(NCC34COC(COc5ccn6ccnc6c5)(C3)C4)cccc12 [Example 2020, 5-N-[[1-(Imidazo[1,2-a]pyridin-7-yloxymethyl)-2-oxabicyclo[2.1.1]hexan-4-yl]methyl]isoquinoline-1,5-diamine]
IC50 (Human Factor XIIa): 0.01 to 0.1 µM | IC50 (Plasma Kallikrein): > 40 µM | IC50 (KLK1): 3 to 10 µM | IC50 (FXa): > 40 µM | IC50 (Thrombin): > 40 µM | half-life [2]: 10.5 h | bioavailability [2]: 19.9%

Nc1nccc2c(NCC34CC(COC5CCn6ccnc6C5)(C3)C4)cccc12 (racemic) [Example 1002, N5-((3-(((5,6,7,8-Tetrahydroimidazo[1,2-a]pyridin-7-yl)oxy)methyl)bicyclo[1.1.1]pentan-1-yl)methyl)isoquinoline-1,5-diamine]
IC50 (Human Factor XIIa): 0.1 to 0.3 µM | IC50 (Plasma Kallikrein): > 40 µM | IC50 (KLK1): 3 to 10 µM | IC50 (FXa): 10 to 40 µM | IC50 (Plasmin): > 40 µM | IC50 (Thrombin): 10 to 40 µM | IC50 (Trypsin): 10 to 40 µM | IC50 (FXIa): > 40 µM

Cc1cnc2ccc(OCC34COC(CNc5cccc6c(N)nccc56)(C3)C4)cn12 [Example 6624, 5-N-[[4-[(3-Methylimidazo[1,2-a]pyridin-6-yl)oxymethyl]-2-oxabicyclo[2.1.1]hexan-1-yl]methyl]isoquinoline-1,5-diamine]
IC50 (Human Factor XIIa): 0.01 to 0.1 µM | IC50 (Plasma Kallikrein): 10 to 40 µM | IC50 (KLK1): 1 to 3 µM | IC50 (FXa): 1 to 3 µM | IC50 (Plasmin): > 40 µM | IC50 (Thrombin): > 40 µM | IC50 (Trypsin): 10 to 40 µM | half-life [2]: 6.64 h | bioavailability [2]: 14.8%

Nc1nccc2c(NCC34COC(COc5ccc6nccn6c5)(C3)C4)cccc12 [Example 2022, 5-N-[[1-(Imidazo[1,2-a]pyridin-6-yloxymethyl)-2-oxabicyclo[2.1.1]hexan-4-yl]methyl]isoquinoline-1,5-diamine]
IC50 (Human Factor XIIa): 0.1 to 0.3 µM | IC50 (Plasma Kallikrein): > 40 µM | IC50 (KLK1): 3 to 10 µM | IC50 (FXa): > 40 µM | IC50 (Thrombin): > 40 µM | half-life [2]: 3.13 h | bioavailability [2]: 42.6%

Nc1nccc2c(NCC34CC(COc5ccn6ccnc6c5)(CCO3)C4)cccc12 [Example 10901, N5-((5-((Imidazo[1,2-a]pyridin-7-yloxy)methyl)-2-oxabicyclo[3.1.1]heptan-1-yl)methyl)isoquinoline-1,5-diamine]
IC50 (Human Factor XIIa): 0.01 to 0.1 µM | IC50 (Plasma Kallikrein): > 40 µM | IC50 (KLK1): 3 to 10 µM | IC50 (FXa): 10 to 40 µM | IC50 (Thrombin): 10 to 40 µM | half-life [2]: 11.9 h | bioavailability [2]: 9.3%
